Legend:
mTORC2 [1] = biological target: T1, mTORC2 (Homo sapiens, UniProt P42345); test: mTORC2 inhibitory activity in HeLa cells (Akt Ser473 phosphorylation, Western blot); type: cell-based; conditions: for remaining activity at 40 µM: read-out: pSer473-AKT/AKT (% control); for inhibition at 40 µM: HeLa, 9 h, read-out: reduction in Akt Ser473 phosphorylation compared to the control group
T1 construct: the following experiments were conducted in HeLa cells; endogenous in cells; host or cells: HeLa
Experimental: (§1) Specifically, HeLa cells were cultured in a 5% CO2 incubator at 37° C. in DMEM (Dulbecco's Modified Eagles Media) medium supplemented with 10% FBS, penicillin (100 unit/ml), and streptomycin (100 μg/ml). Cultivation was started by seeding 4×10^5 cells in a 100 mm culture dish, and subculture was carried out every 3 days.
(§2) Human cell line HeLa cells were seeded in a 60 mm culture dish at a density of 2×10^5 cells/plate, and cultured for 24 hours. Then, HeLa cells were treated with 70 types of compounds at a concentration of 40 μM each for 9 hours. HeLa cells were washed twice with cold 1×PBS, and then lysed with 100 μl of RIPA buffer (50 mM Tris-HCl (pH7.4), 0.25% sodium deoxycholate, 50 mM NaF, 1% NP-40, 150 mM NaCl, 1 mM β-glycerophosphate, 1 mM PMSF, 1 mM NaVO4, 1 μg/ml leupeptin, 1 μg/ml pepstatin A, 10 nM calyculin A, 10 μg/ml aprotinin, 1 mM EDTA) to hemolyze the cell membrane. Then, the lysates were centrifuged at 12,000 rpm at 4° C. for 10 minutes to collect the supernatant, which is cell lysate. Protein concentration in the cell lysate was determined using the BCA protein assay kit (Thermo Fisher Scientific), and equal amounts of protein were separated by SDS-PAGE.
(§3) Western blot analysis was performed by the following method. […] After washing the membrane three times for 5 minutes each with TBS-T buffer, it was incubated with primary antibodies diluted in TBS-T buffer containing 5% skim milk or 5% BSA overnight at 4° C. Subsequently, the membrane was washed three times for 5 minutes each with TBS-T buffer, and then incubated with secondary antibodies diluted in TBS-T buffer containing 5% skim milk at room temperature for 30 minutes. The membrane was washed five times for 5 minutes each with TBS-T buffer containing 5% skim milk, and then the protein bands bound by the secondary antibody were detected using a chemiluminescence method. The primary antibodies used were Akt (cell signaling, #4691), pAkt(S473) (Cell signaling, #4060), p70S6K (Cell signaling, #S6198), pp70S6K(T389) (cell signaling, #9205S), LC3-II (MBL, #PM036), and the secondary antibodies used were HRP conjugated anti-rabbit (Jackson immunoresearch laboratory, #711-035-152) and HRP conjugated anti-mouse IgG (Jackson immunoresearch laboratory, #515-035-072).
As an mTORC2 activity indicator in HeLa cells, the level of Akt Ser473 phosphorylation was selected as a marker, and the phosphor-Akt (Ser473) signal obtained from Western blot analysis was normalized to the pan-Akt signal, and the data were expressed as a percentage relative to the control group treated with DMSO only, which is a vehicle.

LC3-II [2] = test: LC3-II formation as indicator of autophagy in HeLa cells (Western blot); type: cell-based, human; conditions: 9 hours; for activity at 40 µM: Homo sapiens, read-out: LC3-II (% control)
Experimental: as §1, §2, §3
LC3-II formation was selected as an indicator of autophagy in HeLa cells, and the LC3-II signal obtained from Western blot analysis was normalized to the pan-Akt signal and the data were expressed as a percentage relative to the control group treated with DMSO only, which is a vehicle.

[3] = biological target: T2, mTOR(CD) protein and mLST8 protein (Homo sapiens, UniProt P42345+Q9BVC4); test: mTOR(CD)-mLST8 binding assay (co-precipitation, Western blot); conditions: 0.04 to 40 μM
T2 construct: mTOR C-terminal domain (mTOR(CD), a.a. 2179-2549); made in house; host or cells: E. coli (mTOR(CD)); insect Sf9 cells (mLST8, used as a crude extract)
Experimental: mLST8 binds to the mTOR C-terminal domain (mTOR(CD), a.a. 2179-2549). After binding to mTOR, mLST8 interacts with mSin1 and Rictor to complete the formation of the mTORC2 complex, serving as a scaffold. In order to evaluate the inhibitory activity of the compounds synthesized in Examples 1 to 70 on the binding between mLST8 protein and mTOR(CD) protein, the following mTOR(CD)-mLST8 binding assay was performed. Four types of compounds: HN2210, HN2213, HN2221 and HN2313 were used as the experimental target compounds.
Specifically, mTOR(CD) protein was overexpressed in E. coli, labeled with biotin, and then partially purified. mLST8 protein was overexpressed in insect Sf9 cells to obtain mLST8 extract. mTOR(CD)-biotin and mLST8 extract were incubated at 4° C. to induce binding between mTOR(CD)-biotin and mLST8 proteins, and then the mTOR(CD)-biotin and mLST8 complex were co-precipitated using avidin-agarose beads. The relative amounts of precipitated mTOR(CD)-biotin and mLST8 proteins were measured by Western blot analysis, as shown in FIG. 4. Four types of compounds were added during the incubation process of the mTOR(CD)-biotin and mLST8 extract.

mTORC1 [4] = biological target: T3, mTORC1 (Homo sapiens, UniProt P42345); test: mTORC1 inhibitory activity in HeLa cells (p70S6K Thr389 phosphorylation, Western blot); type: cell-based; conditions: for remaining activity at 40 µM: 9 hours, read-out: pThr389-S6K/S6K (% control)
T3 construct: the following experiments were conducted in HeLa cells; endogenous in cells; host or cells: HeLa
Experimental: as §1, §2, §3
As an mTORC1 activity indicator in HeLa cells, the level of p70S6K Thr389 phosphorylation was selected as a marker, and the level of phosphor-p70S6K (Thr389) signal measured by Western blot analysis was normalized to a level of pan-p70S6K signal, and then expressed as a percentage of the control group treated with only DMSO, which is a vehicle.

LC3-II [5] = test: LC3-II levels in primary cultured cerebral neurons; type: cell-based, SD mice
Experimental: Specifically, primary neural cells were cultured from the cerebral cortex of E16 embryos of SD […] with a gestational age 16-day (Orient Bio). The extracted brain was separated into the left and right hemispheres, the meninges were removed, and the brains were treated with trypsin in Ca^2+/Mg^2+-free HBSS solution. […] The cells were seeded at a density of 19,000 cells/cm^2 onto 35 mm culture dishes coated with 50 μg/ml poly-D-Lysine (Sigma, P0899) and 1 μg/ml laminin (Invitrogen, 23017-015), and then maintained in neurobasal complete media supplemented with B27 (Gibco, 17504-044) in a 5% CO2 incubator.
Therefore, the evaluation of mTORC2 inhibitory activity in primary cultured cerebral cells was conducted using the same method as in Experimental Example 1, except that each compound was treated at concentrations of 500 nM or 100 nM for 24 hours. The time-dependent changes in Akt Ser473 phosphorylation, Akt Thr308 phosphorylation, and LC3-II levels were measured by Western blot analysis.

mTORC2 [6] = test: mTORC2 inhibitory activity in primary cultured cerebral neurons (Akt Ser473 phosphorylation); type: cell-based, SD mice
Experimental: Specifically, primary neural cells were cultured from the cerebral cortex of E16 embryos of SD mice with a gestational age 16-day (Orient Bio). The extracted brain was separated into the left and right hemispheres, the meninges were removed, and the brains were treated with trypsin in Ca^2+/Mg^2+-free HBSS solution.
The time-dependent changes in Akt Ser473 phosphorylation, Akt Thr308 phosphorylation, and LC3-II levels were measured by Western blot analysis.

mTORC1 [7] = test: mTORC1 inhibitory activity in primary cultured cerebral neurons (S6K Thr389 phosphorylation); type: cell-based, SD mice

| selective inhibition of mTORC2 (mTORC2 [1]; 40 μM, 9 hours, versus mTORC1) | remaining activity at 40 µM (mTORC2 [1]; 9 hours) [%] | inhibition at 40 µM (mTORC2 [1]) [%] | inhibition of the binding between mTOR(CD) and mLST8 proteins [3] | remaining activity at 40 µM (mTORC1 [4]) [%] | inhibition at 40 µM (mTORC1 [4]; HeLa, 9 h, read-out: reduction in p70S6K Thr389 phosphorylation compared to the control group) [%] | SMILES | activity at 40 µM (LC3-II [2]) [%] | increase in LC3-II (LC3-II [2]; 40 μM) [%] | LC3-II (% control) (LC3-II [5]; 100 nM, 24 hours) | effect on LC3-II (LC3-II [5]; 500 nM or 100 nM, time course to 24 hours) | selectivity for mTORC2 over mTORC1 (mTORC2 [6]) | pSer473-AKT/AKT (% control) (mTORC2 [6]; 100 nM, 24 hours) | effect on Akt Ser473 phosphorylation (mTORC2 [6]; 500 nM or 100 nM, 24 hours) | decrease in AKT Ser473 phosphorylation at 24 hours (mTORC2 [6]; 500 nM or 100 nM, at 24 hours) [%] | AKT Ser473 phosphorylation from 1 to 12 hours (mTORC2 [6]; from 1 to 12 hours) | pThr389-S6K/S6K (% control) (mTORC1 [7]; 100 nM, 24 hours) | effect on S6K Thr389 phosphorylation (mTORC1 [7]; 500 nM or 100 nM, time course to 24 hours (HN2304: from 6 to 24 hours)) |
| --- | --- | --- | --- | --- | --- | --- | --- | --- | --- | --- | --- | --- | --- | --- | --- | --- | --- |
| selectively inhibit mTORC2 | 77 | > 20 | did not significantly inhibit | 93 | – | O=C1c2cc(F)c(NC3CCCCC3)cc2COc2cc3c(cc21)OCO3 [HN2221, 8-(cyclohexylamino)-9-fluoro[2]benzoxepino[3,4-f]-1,3-benzodioxol-11(6H)-one] | 119 | – | – | – | – | – | – | – | – | – | – |
| – | 72 | > 20 | – | 60 | 40 | COc1ccccc1CNc1cc2c(cc1F)C(=O)c1cc3c(cc1OC2)OCO3 [HN2323, 9-fluoro-8-((2-methoxybenzyl)amino)-[1,3]dioxolo[4′,5′:4,5]benzo[1,2-b]benzo[e]oxepin-11(6H)-one] | 180 | 80 | 135 | no effect | selective mTORC2 inhibitors | 48 | reduce Akt Ser473 phosphorylation | 52 | increased AKT Ser473 phosphorylation significantly | 128 | no effect |

Reference: patent US20260265267A1, “NOVEL COMPOUNDS WITH MTORC2-INHIBITORY ACTIVITY AND USES THEREOF” (Aliad Biopharma, priority 2023, published 2026)
